# Reference: patent US20260008758A1, “LINEAR DIPEPTIDYL PEPTIDASE 1 INHIBITORS AND USES THEREOF” (Insmed Incorporated, priority 2024, published 2026)
# Assays:
# [1] = biological target: T1, human DPP1 enzyme (Homo sapiens (Human), UniProt P53634); experiment: Human DPP1 enzyme IC50 assay; assay type: biochemical; conditions: recombinant human DPP1, H-Gly-Arg-AMC substrate 400 μM
# Protocol: Test articles were applied to activated human DPP1 enzyme in Assay Buffer (25 mM MES pH 6.0, 50 mM NaCl, 5 mM DTT) in a total reaction volume of 125 μL. 25 μL of compound in Assay Buffer plus 5% DMSO was first added to 50 μL of activated human DPP1 enzyme at a concentration of 1 ng/μL and allowed to pre-incubate for 10 minutes at 37° C. after which 50 μL of 1000 μM H-Gly-Arg-AMC substrate (Bachem; St. Torrance, CA) was added, giving final substrate concentration of 400 μM and a final DMSO concentration of 1%. Substrate cleavage was measured for 90 minutes at 37° C., with fluorescence at Excitation/Emission 350/450 nm measured every 5 minutes. DPP1 concentration was interpolated based on its activity relative to a standard curve of activated human recombinant DPP1 enzyme. IC50 values for each compound were calculated via the XLFit (IDBS Version 5.3.1.3) Add-On to Microsoft Excel using the four parameter fit equation y={A+[(B-A)]/[1+((C/x)^D)]}, which appears as equation number 205 (4 Parameter Logistic Model or Sigmoidal Dose-Response Model) in XLFit. Default constraints were used for each Parameter.
# [2] = biological target: DPP1 in HL-60 cells (Homo sapiens (Human), UniProt P53634); experiment: DPP1 cell single-point percent inhibition testing (HL-60 cells, H-Gly-Phe-AFC substrate); assay type: cell-based; conditions: read-out: DPP1 cell % inhibition @ 5 nM, 5 nM compound, 100 μM H-Gly-Phe-AFC, 60 min pre-incubation at 37° C.
# Sequence of DPP1 in HL-60 cells (P53634 25-134): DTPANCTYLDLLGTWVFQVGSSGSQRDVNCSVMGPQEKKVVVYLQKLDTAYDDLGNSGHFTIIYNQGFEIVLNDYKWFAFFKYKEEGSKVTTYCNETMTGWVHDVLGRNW
# Sequence of DPP1 in HL-60 cells (P53634 231-394): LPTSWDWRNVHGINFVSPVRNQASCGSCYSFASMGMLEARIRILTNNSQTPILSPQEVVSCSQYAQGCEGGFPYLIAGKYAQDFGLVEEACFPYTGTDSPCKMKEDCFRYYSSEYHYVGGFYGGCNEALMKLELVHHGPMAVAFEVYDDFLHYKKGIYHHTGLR
# Sequence of DPP1 in HL-60 cells (P53634 395-463): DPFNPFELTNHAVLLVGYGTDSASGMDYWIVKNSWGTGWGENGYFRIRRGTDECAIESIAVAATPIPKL
# Protocol: HL-60 cells (ATCC; Manassas, VA) were maintained in RPMI-1640 supplemented with 20% heat-inactivated FBS and 1× Antibiotic Antimycotic (Cytiva; Marlborough, MA). Media was changed every three to four days and cells were not allowed to exceed 1×10^6 cells per mL. Prior to assay, cells were collected by centrifugation at 500 rcf for 3 minutes, resuspended in RPMI (with no additional supplements) and counted. Cells were diluted in RPMI to a concentration of 5×10^5 live cells per mL and transferred to black 96-well plates for assay, 60 μL per well. Test articles were diluted to 25 nM in RPMI plus 0.5% DMSO, and 20 μL was added to each assay well. Compound was allowed to pre-incubate with cells with gentle shaking at 100 rpm for 60 minutes at 37° C. in a cell culture incubator maintained at 5% CO2, after which 20 μL of 500 μM H-Gly-Phe-AFC cell-permeable substrate (MP Biomedicals; Solon, OH) in RPMI was added to each well, giving final compound concentration of 5 nM, a final substrate concentration of 100 μM and a final DMSO concentration of 0.1%. Plates were returned to the incubator with shaking at 100 rpm for 30 minutes, after which fluorescence was measured at Excitation/Emission 400/505 nm. Percent Inhibition was calculated from RFU values by first subtracting background values (wells in which RPMI was substituted for cells) from each well, and then subtracting background-subtracted RFU derived from wells that received a final concentration of 10 μM brensocatib. This value represents the non-specific substrate cleavage from the HL-60 cells, and the remaining RFU should theoretically be solely the contribution of DPP1 enzyme activity. The final percent inhibition value was calculated for each test article based on remaining RFU compared to RFU from wells that received only vehicle control.
# [3] = biological target: T1, human DPP1 enzyme; experiment: Human DPP1 enzyme single-point percent inhibition testing (HL-60 lysate, H-Gly-Arg-AMC substrate); assay type: biochemical; conditions: read-out: human DPP1 enzyme % inhibition @ 10 nM, 10 nM compound, 400 μM H-Gly-Arg-AMC, 10 min pre-incubation at 37° C.
# Protocol: A crude lysate of HL-60 cells (ATCC; Manassas, VA) was used as a source of human DPP1 enzyme in the assay. Lysate was prepared in 1% Triton X-100 in PBS at a concentration of 20,000 live cells per […] of lysis buffer and was centrifuged at 16,000 rcf for 10 minutes at 4° C., after which supernatant was collected and flash-frozen in liquid nitrogen. Test articles were applied to human DPP1 enzyme in Assay Buffer (25 mM MES pH 6.0, 50 mM NaCl, 5 mM DTT) in a total reaction volume of 125 μL. 25 μL of compound diluted to 50 nM in Assay Buffer plus 5% DMSO was first added to 50 μL of HL-60 lysate diluted to contain a DPP1 enzyme concentration of roughly 1 ng/μL and allowed to pre-incubate for 10 minutes at 37° C. after which 50 μL of 1000 μM H-Gly-Arg-AMC substrate (Bachem; St. Torrance, CA) was added, giving final compound concentration of 10 nM, a final substrate concentration of 400 μM and a final DMSO concentration of 1%. Substrate cleavage was measured for 90 minutes at 37° C., with fluorescence at Excitation/Emission 350/450 nm measured every 5 minutes. DPP1 concentration was interpolated based on its activity relative to a standard curve of activated human recombinant DPP1 enzyme. Percent inhibition at 10 nM was calculated for each test article based on remaining DPP1 activity compared to enzyme activity in wells that received only vehicle control.
# T1 sequence (P53634 25-134): as the sequence (P53634 25-134) above
# T1 sequence (P53634 231-394): as the sequence (P53634 231-394) above
# T1 sequence (P53634 395-463): as the sequence (P53634 395-463) above
Structure (SMILES),IC50 [1],inhibition at 0.005 µM [2],inhibition at 0.01 µM [3]
"CN1CCN[C@@H](CC(=O)N[C@H](C#N)Cc2ccc(-c3ccc4oc(=O)n(C)c4c3)cc2)C1 [Compound 253, N-[(1S)-1-cyano-2-[4-(3-methyl-2-oxo-1,3-benzoxazol-5-yl)phenyl]ethyl]-2-(4-methylpiperazin-2-yl)acetamide]",≥ 15 nM,–,–
"CCN1C(=O)Cc2ccc(-c3ccc(C[C@@H](C#N)NC(=O)[C@](C)(N)C4CCCC4)cc3)cc21 [Compound 259B, (2R)-2-amino-N-[(1S)-1-cyano-2-[4-(1-ethyl-2-oxo-3H-indol-6-yl)phenyl]ethyl]-2-cyclopentylpropanamide]",≥ 15 nM,–,–
"Cc1cn2cc(-c3ccc(C[C@@H](C#N)NC(=O)[C@](C)(N)C4CCC4)c(F)c3)cc2c(C)n1 [Compound 272A, (R)-2-amino-N—((S)-1-cyano-2-(4-(1,3-dimethylpyrrolo[1,2-a]pyrazin-7-yl)-2-fluorophenyl)ethyl)-2-cyclobutylpropanamide]",≥ 15 nM,–,–
"CN(C)C[C@H](O)C(=O)N[C@@H](C#N)Cc1cc2c(cc1F)-c1ccc(C#N)cc1CO2 [Compound 277B, (2S)—N-[(1R)-1-cyano-2-{8-cyano-2-fluoro-6H-benzo[c]chromen-3-yl}ethyl]-3-(dimethylamino)-2-hydroxypropanamide]",≥ 15 nM,–,–
CO[C@@H](CN(C)C)C(=O)NC(C#N)Cc1cc2c(cc1F)-c1cc(C3COC3)c(F)cc1CO2 (stereo partly shown) [Compound 295],–,≤ 76.5%,40 to 66.7%
CO[C@@H](CN(C)C)C(=O)N[C@H](C#N)Cc1cc2c(cc1F)-c1ccc(C#N)cc1CO2 [Compound 296],–,≤ 76.5%,≤ 40%
CO[C@@H](CN(C)C)C(=O)NC(C#N)Cc1cc2c(cc1F)-c1cc3c(cc1CO2)oc(=O)n3C (stereo partly shown) [Compound 297],–,≤ 76.5%,≤ 40%
CO[C@@H](CN(C)C)C(=O)NC(C#N)Cc1cc2c(cc1F)-c1cc(C#N)ccc1CO2 (stereo partly shown) [Compound 298],–,≤ 76.5%,≤ 40%
CO[C@@H](CN(C)C)C(=O)NC(C#N)Cc1cc2c(cc1F)-c1ccc3oc(=O)n(C)c3c1CO2 (stereo partly shown) [Compound 299],–,≤ 76.5%,≤ 40%
CO[C@@H](CN(C)C)C(=O)N[C@H](C#N)Cc1ccc(-c2ccc3c(c2)C2(CC3)CCN(C)CC2)cc1 [Compound 300],–,≤ 76.5%,40 to 66.7%
CO[C@@H](CN(C)C)C(=O)N[C@H](C#N)Cc1ccc(-c2ccc3c(c2)C2(CCCN(C)C2)C(=O)N3C)cc1 (stereo partly shown) [Compound 301],–,76.5 to 93.9%,≤ 40%
CO[C@@H](CN(C)C)C(=O)N[C@H](C#N)Cc1ccc(-c2ccc3oc(=O)n(CCN(C)C)c3c2)cc1 [Compound 302],–,≤ 76.5%,40 to 66.7%
CO[C@@H](CN(C)C)C(=O)N[C@H](C#N)Cc1ccc(-c2cc3c(C)nc(C)cn3c2)cc1 [Compound 303],–,≤ 76.5%,≤ 40%
CO[C@@H](CN(C)C)C(=O)N[C@H](C#N)Cc1ccc(-c2ccc3c(c2)C2(CN(C)C2)OC3=O)cc1 [Compound 304],–,≤ 76.5%,≤ 40%
CCN1C(=O)Cc2ccc(-c3ccc(C[C@@H](C#N)NC(=O)[C@H](CN(C)C)OC)cc3)cc21 [Compound 305],–,≤ 76.5%,≤ 40%
CO[C@@H](CN(C)C)C(=O)N[C@H](C#N)Cc1ccc(-c2ccc3c(c2)C2(CCN(C)C2)OC3=O)cc1 (stereo partly shown) [Compound 306],–,≤ 76.5%,≤ 40%
CO[C@@H](CN(C)C)C(=O)N[C@H](C#N)Cc1ccc(-c2ccc3cnn(C4CCN(C)CC4)c3c2)cc1 [Compound 307],–,≤ 76.5%,40 to 66.7%

Structure (SMILES),IC50 [1],inhibition at 0.005 µM [2],inhibition at 0.01 µM [3]
CO[C@@H](CN(C)C)C(=O)N[C@H](C#N)Cc1ccc(-c2ccc3c(c2)C2(CCN(C4COC4)CC2)OC3)cc1 [Compound 308],–,≤ 76.5%,≤ 40%
CO[C@@H](CN(C)C)C(=O)N[C@H](C#N)Cc1ccc(-c2ccc3oc(=O)n(CCN4CCOCC4)c3c2)cc1 [Compound 309],–,≤ 76.5%,≤ 40%
CO[C@@H](CN(C)C)C(=O)N[C@H](C#N)Cc1ccc(-c2ccc(CN3CCN(C)CC3)cc2)cc1 [Compound 310],–,76.5 to 93.9%,≤ 40%
CO[C@@H](CN(C)C)C(=O)N[C@H](C#N)Cc1ccc(-c2ccc3oc(=O)n(C)c3c2)cc1 [Compound 311],–,76.5 to 93.9%,≤ 40%
CO[C@@H](CN(C)C)C(=O)N[C@H](C#N)Cc1ccc(-c2ccc3c(n2)CCCN3)cc1 [Compound 312],–,≤ 76.5%,≤ 40%
CO[C@@H](CN(C)C)C(=O)N[C@H](C#N)Cc1ccc(-c2ccc3c(c2)C2(CC3)CCN(C)CC2)cc1F [Compound 313],–,≤ 76.5%,≥ 66.7%
CO[C@@H](CN(C)C)C(=O)N[C@H](C#N)Cc1ccc(-c2ccc3c(c2)C2(CCCN(C)C2)C(=O)N3C)cc1F (stereo partly shown) [Compound 314],–,≥ 93.9%,40 to 66.7%
CO[C@@H](CN(C)C)C(=O)N[C@H](C#N)Cc1ccc(-c2ccc3oc(=O)n(CCN(C)C)c3c2)cc1F [Compound 315],–,≤ 76.5%,≥ 66.7%
CO[C@@H](CN(C)C)C(=O)N[C@H](C#N)Cc1ccc(-c2cc3c(C)nc(C)cn3c2)cc1F [Compound 316],–,≤ 76.5%,≤ 40%
CO[C@@H](CN(C)C)C(=O)N[C@H](C#N)Cc1ccc(-c2ccc3c(c2)C2(CN(C)C2)OC3=O)cc1F [Compound 317],–,≤ 76.5%,40 to 66.7%
CCN1C(=O)Cc2ccc(-c3ccc(C[C@@H](C#N)NC(=O)[C@H](CN(C)C)OC)c(F)c3)cc21 [Compound 318],–,76.5 to 93.9%,40 to 66.7%
CO[C@@H](CN(C)C)C(=O)N[C@H](C#N)Cc1ccc(-c2ccc3c(c2)C2(CCN(C)C2)OC3=O)cc1F (stereo partly shown) [Compound 319],–,≤ 76.5%,≥ 66.7%
CO[C@@H](CN(C)C)C(=O)N[C@H](C#N)Cc1ccc(-c2ccc3cnn(C4CCN(C)CC4)c3c2)cc1F [Compound 320],–,≤ 76.5%,≥ 66.7%
CO[C@@H](CN(C)C)C(=O)N[C@H](C#N)Cc1ccc(-c2ccc3c(c2)C2(CCN(C4COC4)CC2)OC3)cc1F [Compound 321],–,≤ 76.5%,40 to 66.7%
CO[C@@H](CN(C)C)C(=O)N[C@H](C#N)Cc1ccc(-c2ccc3oc(=O)n(CCN4CCOCC4)c3c2)cc1F [Compound 322],–,≤ 76.5%,40 to 66.7%
CN(C)C[C@H](O)C(=O)NC(C#N)Cc1cc2c(cc1F)-c1cc(C#N)ccc1CO2 (stereo partly shown) [Compound 340],–,–,≤ 40%
